From paper PMC5733122, “Purification, Characterization, and Mode of Action of Pentocin JL-1, a Novel Bacteriocin Isolated from Lactobacillus pentosus, against Drug-Resistant Staphylococcus aureus” (BioMed Research International, 2017)

Columns and labels:
MRSA GIM 1.771 cells = experiment: Transmembrane pH gradient (ΔpH), BCECF AM fluorescence; assay type: cell-based, Staphylococcus aureus; details: 1x MIC and 2x MIC, compared with 1% Triton X-100, 400 s
Experimental: ΔpH was monitored by the fluorescent pH probe 2′,7′-bis-(2-carboxyethyl)-5-(and-6)-carboxyfluorescein, acetoxymethyl ester (BCECF AM) (Beyotime, China). MRSA GIM 1.771 cells were grown to the exponential phase in 50 mL TSB culture medium, harvested, washed twice with 50 mL 5 mM HEPES buffer at 4°C, and resuspended in 5 mL of the same buffer for incubation on ice for 1 h. Subsequently, the 1 μM BCECF AM pH probe was added and the solution was incubated at 37°C for 1 h in the dark. Then 1 mL of the incubated solution was added to a fluorescence cuvette together with a final concentration of 1x, 2x, and 3x MIC of pentocin JL-1, respectively. Acetic acid (0.05%, w/v) was used as a negative control and 1% (w/v) Triton X-100 was used as a positive control. To the control, an equivalent volume of 3x MIC of pentocin JL-1 was added. The fluorescence intensity was monitored at 50 s intervals for 400 s immediately after mixing at Ex 488 nm and Em 535 nm using an F-4600 spectrofluorometer (Hitachi, Japan).

proteinase K = biological target: T1, proteinase K (Parengyodontium album, UniProt P06873); experiment: Enzymatic sensitivity, residual antibacterial activity; assay type: in vitro ADME; details: 1 h
T1 construct: purchased Sigma-Aldrich
T1 sequence (P06873 106-384): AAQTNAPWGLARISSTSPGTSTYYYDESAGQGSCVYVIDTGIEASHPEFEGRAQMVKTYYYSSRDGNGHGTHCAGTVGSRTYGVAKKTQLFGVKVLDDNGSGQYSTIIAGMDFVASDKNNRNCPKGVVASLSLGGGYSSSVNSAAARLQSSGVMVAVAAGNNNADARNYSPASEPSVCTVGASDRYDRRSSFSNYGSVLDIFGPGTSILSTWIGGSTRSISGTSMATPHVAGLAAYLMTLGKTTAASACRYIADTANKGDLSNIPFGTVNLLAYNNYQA
Experimental: […] After incubation for 1 h, the bacteriocin-enzyme mixture was boiled for 5 min to inactivate the enzymes.
(§1) The residual antibacterial activities of the above samples were calculated using the agar-well diffusion test with MRSA GIM 1.771 as the indicator strain. […] Lyophilized pentocin JL-1 dissolved in 0.05% (w/v) acetic acid at 15 μg/mL with pH 5.5 was used as a control in all assays.

pepsin = biological target: T2, pepsin (Sus scrofa, UniProt P00791); experiment: as above; assay type: in vitro ADME; details: Pepsin 75 μg/mL (pH 1.8, 37°C), 1 h, pentocin JL-1 15 μg/mL
T2 construct: purchased Sigma-Aldrich
T2 sequence (P00791 60-385): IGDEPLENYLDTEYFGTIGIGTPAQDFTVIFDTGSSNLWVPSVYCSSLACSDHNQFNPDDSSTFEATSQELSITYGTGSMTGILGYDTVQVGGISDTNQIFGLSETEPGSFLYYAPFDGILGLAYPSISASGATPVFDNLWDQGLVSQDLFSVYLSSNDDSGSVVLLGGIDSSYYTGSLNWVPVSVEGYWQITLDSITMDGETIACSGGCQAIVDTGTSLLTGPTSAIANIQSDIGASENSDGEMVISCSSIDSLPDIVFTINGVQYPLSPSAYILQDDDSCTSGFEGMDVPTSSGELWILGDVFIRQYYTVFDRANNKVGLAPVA
Experimental: (§2) To determine enzymatic sensitivity, lyophilized purified pentocin JL-1 dissolved in 0.05% (w/v) acetic acid at 15 μg/mL was treated with the following enzymes at 75 μg/mL under their respective optimum pH and temperatures: proteinase K (pH 7.5, 37°C), trypsin (pH 8.0, 37°C), pepsin (pH 2.0, 37°C), and alkaline protease (pH 8.6, 50°C) (all from Sigma-Aldrich, USA). After incubation for 1 h, the bacteriocin-enzyme mixture was boiled for 5 min to inactivate the enzymes.
as §1

alkaline protease = experiment: as above; assay type: in vitro ADME; details: 1 h
Experimental: as §2, §1

[1] = test system: Multidrug-resistant S. aureus 1; experiment: Agar-well diffusion test; assay type: cell-based; details: 15 μg/mL, pH 5.5, pork isolate resistant to FOX, TET, mean ± SD, triplicate
Experimental: (§3) The intestinal tracts of C. punctatum (grey carpet shark) were dissected and homogenized in 20 mL saline solution under sterile conditions and were then plated in serial dilutions in deMan, Rogosa, and Sharpe (MRS) medium. The plates were incubated aerobically at 30°C for 24 h. Several colonies were picked at random and incubated again in MRS broth. For screening for bacteriocin-producing strains, the agar-well diffusion test was used to detect antimicrobial activity in cell-free supernatants (filtered through a 0.22 μm Millipore filter) obtained by centrifugation (10,000g, 30 min, 4°C) after 18, 36, 60, and 72 h incubation. The Gram-positive strain MRSA GIM 1.771 and the Gram-negative strain Escherichia coli O157:H7 GIM 1.707 were used as indicator strains. Before the experiments, the indicator strains were grown to 10^6 CFU/mL. Then, 1 mL of the culture was mixed with 100 mL soft agar medium and poured onto individual Petri dishes. Subsequently, 8 mm diameter wells were punched onto the plates, and each well was filled with 100 μL of the cell-free supernatants under sterile conditions. The plates were incubated overnight at their respective optimum temperatures, and the clear zones of inhibition were measured in diameter and indicated the presence of antimicrobial activity. In our study, all bacteria culture media and chemical reagents were supplied by Sigma-Aldrich (USA).
(§4) The agar-well diffusion test as described previously was used to detect the antimicrobial activity of the purified pentocin JL-1 (15 μg/mL, pH 5.5). LAB strains were grown in MRS broth at 30°C for 16 h. Other Gram-positive indicator strains were grown in Tryptone Soy Broth (TSB) medium at 37°C and the Gram-negative indicator strains were grown in Luria-Bertani broth medium at 37°C.

[2] = test system: Multidrug-resistant S. aureus 2; experiment: Agar-well diffusion test; assay type: cell-based; details: 15 μg/mL, pH 5.5, pork isolate resistant to FOX, GEN, mean ± SD, triplicate
Experimental: as §3, §4

[3] = test system: Bacillus subtilis CGMCC1.1627; experiment: Agar-well diffusion test; assay type: cell-based
Experimental: as §3, §4

[4] = test system: Vibrio parahaemolyticus GIM1.306; experiment: Agar-well diffusion test; assay type: cell-based
Experimental: as §3, §4

[5] = test system: Multidrug-resistant S. aureus 3; experiment: Agar-well diffusion test; assay type: cell-based; details: 15 μg/mL, pH 5.5, pork isolate resistant to FOX, TET, GEN, mean ± SD, triplicate
Experimental: as §3, §4

[6] = purified pentocin JL-1 15 μg/mL, pH 5.5, inhibition zone diameter class incl. 8 mm well

VAKVAR [pentocin JL-1, novel bacteriocin produced by Lactobacillus pentosus JL-1, purified by four-step chromatography, molecular mass 2987.23 Da, cationic and hydrophobic peptide]
extent of ΔpH dissipation (MRSA GIM 1.771 cells): incompletely dissipated
Residual inhibitory activity (inhibition zone diameter, mm) (proteinase K; Proteinase K 75 μg/mL (pH 7.5, 55°C), then boiled 5 min, pentocin JL-1 15 μg/mL, agar-well diffusion vs MRSA GIM 1.771, mean ± SD, triplicate): 17.3 ± 1.2 mm
Residual inhibitory activity (%) (proteinase K; Proteinase K 75 μg/mL (pH 7.5, 55°C), pentocin JL-1 15 μg/mL, vs MRSA GIM 1.771, relative to control): 72.38^∗ %
inhibitory action after enzyme treatment (proteinase K; proteinase K 75 μg/mL, p < 0.05): significantly reduced
Residual inhibitory activity (inhibition zone diameter, mm) (pepsin; then boiled 5 min, agar-well diffusion vs MRSA GIM 1.771, mean ± SD, triplicate): 0.0 ± 0.0 mm
Residual inhibitory activity (%) (pepsin; vs MRSA GIM 1.771, relative to control): 0.00^∗ %
Residual inhibitory activity (inhibition zone diameter, mm) (alkaline protease; Alkaline protease 75 μg/mL (pH 8.6, 50°C), then boiled 5 min, pentocin JL-1 15 μg/mL, agar-well diffusion vs MRSA GIM 1.771, mean ± SD, triplicate): 0.0 ± 0.0 mm
Residual inhibitory activity (%) (alkaline protease; Alkaline protease 75 μg/mL (pH 8.6, 50°C), pentocin JL-1 15 μg/mL, vs MRSA GIM 1.771, relative to control): 0.00^∗ %
inhibitory action after enzyme treatment (alkaline protease; alkaline protease 75 μg/mL): completely abolished
Inhibitor zone [1]: 23.8 ± 0.8 mm
Inhibitor zone [2]: 22.5 ± 1.2 mm
inhibitory activity ([3]; 15 μg/mL, pH 5.5): inhibited
Antimicrobial activity [3, 6]: ++ (++: 15–19)
inhibitory activity ([4]; 15 μg/mL, pH 5.5): no inhibitory activity
Antimicrobial activity [4, 6]: −
Inhibitor zone [5]: 24.3 ± 0.7 mm
